Here are results for five compounds from US12269816B2, “Benzothiophene compound, preparation method therefor and use thereof” (SICHUAN KELUN-BIOTECH BIOPHARMACEUTICAL CO., LTD., priority 2019, dated 2025).

The test system of experiment [1] is STING-mediated interferon (IFN) signal reporter gene in THP1-Blue™ ISG cells. Briefly: STING-mediated interferon (IFN) signal SEAP reporter gene assay in THP1-Blue ISG cells. Type of experiment: cell-based, human. The settings on record: for EC50: 16 h incubation, SEAP reporter read at OD620nm; for Emax (OD620nm): highest OD620nm value generated by stimulation of the compound, 16 h; for agonistic effect on the STING-mediated Interferon (IFN) signal pathway: result in words. An excerpt: In this experiment, the activity of the SEAP (secreted embryonic alkaline phosphatase) reporter gene regulated by the IFN regulatory factor (interferon regulatory factor) was detected in the THP1-Blue™ ISG cells (InvivoGen) to evaluate the agonistic effect of the compounds to be tested on the STING-mediated IFN signal pathway at the cellular level.
The THP1-Blue™ ISG cells (InvivoGen) in the logarithmic phase were centrifuged, and resuspended in a cell culture solution to a density of 2×10^6 cells/ml. The cell suspension was inoculated in a 96-well cell culture plate (Corning) at 50 μL/well. The mother liquor of the compound to be tested was gradiently diluted with a cell culture solution to obtain a 2× working concentration diluted solution (control compounds 1 and 2 were diluted at a 3-fold gradient: 200, 66.67, 22.22, 7.41, 2.47, 0.82, 0.27 and 0 μM; compounds 1, 2, 4, 6, 8, and 23 were diluted at a 8-fold gradient: 60, 7.5, 0.94, 0.12, 0.015, 0.0018, 0.00023 and 0 μM; and compounds 3 and 5 were diluted at a 10-fold gradient: 10, 1, 0.1, 0.01, 0.001, 0.0001, 0.00001 and 0 μM). The 2× working concentration diluted solution of the compound was added into a 96-well plate (50 μl of the culture solution containing 2% DMSO was added into the negative control well) at 50 μL/well. The culture plate was then placed in a cell incubator, and incubated for 16 h. After the cell incubation, 10 μL of the cell culture supernatant was transferred to a 96-well plate, and a QUANTI-Blue (InvivoGen) solution was added at 90 μL/well. The cells were incubated at 37° C. for 3 h. The absorbance at 620 nm (OD620nm) was read with a microplate reader.
In the table, EC50 refers to the concentration of a compound when ODM620nm value generated by stimulation of the compound reaches half of Emax; and Emax refers to the highest OD620nm value generated by stimulation of the compound.

In experiment [2] the test system is STING and its downstream proteins TBK1 and IRF3 in THP-1 cells. Briefly: Western blotting of phosphorylation of STING signal pathway proteins in human THP-1 cells. Conditions: 3 hours, protein blotting, FIGS. 1-5, result in words. It is filed as cell-based. The text has this:
In this experiment, the changes in the phosphorylation levels of STING and its downstream proteins TBK1 (TANK-binding kinase 1) and IRF3 (interferon regulatory factor 3) were detected by protein blotting to evaluate the agonistic effect of the test compounds on the STING signal pathway at the cellular level.
The THP-1 cells in the logarithmic phase were centrifuged, and resuspended in a cell culture solution to a density of […]. The cell suspension was inoculated into a 12-well cell culture plate (Corning) at 0.5 mL/well. The compound to be tested was diluted with a cell culture solution to 2× working solution concentration (control compounds 1 and 2: 60 μM; compounds 1 and 3: 0.6 μM, 6 μM, and 60 μM; compounds 2, 4, 6 and 8: 6 μM, 20 μM, and 60 μM). 0.5 mL of the diluted solution of the compound was added into a 12-well plate (500 μl of the culture solution containing 2% DMSO was added into the negative control well), and the plate was incubated in a cell incubator for 3 hours. After the incubation, the cells were collected by centrifugation, lysed with 60 μL cell lysis buffer (CST) for 30 minutes, and centrifuged at 12,000 rpm for 15 minutes. The supernatant was collected to determine the protein concentration, and then an appropriate amount of 5× protein loading buffer was added. The mixture was heated at 95° C. for 10 minutes to prepare a protein electrophoresis sample. Finally protein blotting was performed to detect the phosphorylation level of the corresponding protein. The primary antibodies used in the protein blotting were purchased from CST: STING (D2P2F) rabbit mAb, Phospho-STING (Ser366) rabbit mAb, Phospho-IRF3 (Ser396) (D601M) rabbit mAb, IRF3 (D83B9) rabbit mAb, TBK1/NAK (D1B4) rabbit mAb, Phospho-TBK1/NAK (Ser172) (D52C2) XP® rabbit mAb, and GAPDH (D16H11) rabbit mAb; and the secondary antibody horseradish peroxidase-conjugated goat anti-rabbit IgG (H+L) was purchased from Zsgb-bio.

Experiment [3] has as its system STING pathway cytokine hIFN-β in human THP-1 cells. In words: ELISA of STING pathway cytokine hIFN-β expression in human THP-1 cells. It is filed as cell-based. The settings on record: 8 hours, ELISA; for EC50: hIFN-β expression; for Emax: highest expression of hIFN-β. An excerpt: In this experiment, the expression of STING signal pathway cytokine hIFN-β was detected in THP1 cells (Nanjing Cobioer) by the ELISA method, so as to evaluate the agonistic effect of the compounds to be tested on the expression of STING pathway cytokine hIFN-β at the cellular level.
THP1 cells (Nanjing Cobioer) in the logarithmic phase were centrifuged, and resuspended in a cell culture solution to a density of 8×10^6 cells/ml. The cell suspension was inoculated into a 24-well cell culture plate (Corning) at 250 μL/well.
The mother liquor of the compound to be tested was diluted with a cell culture solution to obtain a 2× working concentration diluted solution (control compounds 1 and 2 were diluted at a 2-fold gradient: 200, 100, 50, 25, 12.5, 6.25, 3.125, 1.5625 and 0 μM; and compounds 4, 6, and 8 were diluted at a 3-fold gradient: 200, 66.67, 22.22, 7.41, 2.47, 0.82, 0.27, 0.091 and 0 μM). The 2× working concentration diluted solution of the compound was added into 24-well plate (250 μl of the culture solution containing 2% DMSO was added into the negative control well) at 250 μL/well. The culture plate was placed in a cell culture incubator, and incubated for 8 hours. After the cell incubation, the supernatant was collected by centrifugation at 300 g×5 min, and the hIFN-β content (pg/ml) in the cell culture supernatant was detected according to the operating instructions of the VeriKine Human […] ELISA kit from PBL (obtained by conversion of the […] absorbance-hIFN-β standard concentration standard curve and the OD450 nm absorbance value read by the microplate reader). […] was calculated through log(agonist) vs. response—Variable slope fitting by the Graphpad Prism software, and the experimental results are shown in Table 2.
In the table, EC50 refers to the concentration of a compound when the expression of hIFN-β generated by stimulation of the compound reaches half of Emax and Emax refers to the highest expression of hIFN-β generated by stimulation of the compound.

The test system of experiment [4] is STING pathway cytokine mIFN-β in mouse Raw264.7 cells. Briefly: ELISA of STING pathway cytokine mIFN-β expression in mouse Raw264.7 cells. Type of experiment: cell-based. The settings on record: 6 h, ELISA; for Emax: highest expression of mIFN-β; for EC50: mIFN-β expression. An excerpt:
In this experiment, the expression of STING signal pathway cytokine mIFN-β was detected in Raw264.7 cells (Nanjing Cobioer) by the ELISA method, so as to evaluate the agonistic effect of the compound to be tested on the expression of STING pathway cytokine mIFN-β at the cellular level.
Raw264.7 cells (Nanjing Cobioer) in the logarithmic phase were centrifuged, and resuspended in a cell culture solution to a density of 1.6×10^6 cells/ml. The cell suspension was inoculated into a 24-well cell culture plate (Corning) at 250 μL/well. The mother liquor of the compound to be tested was gradiently diluted with a cell culture solution to obtain a 2× working concentration diluted solution (control compound 1 was diluted at a 3-fold gradient: 200, 66.67, 22.22, 7.41, 2.47, 0.82, 0.27 and 0 μM; control compound 2 was diluted at a 2-fold gradient: 200, 100, 50, 25, 12.5, 6.25, 3.125 and 0 μM; and compounds 4, 6 and 8 were diluted at a 4-fold gradient: 200, 50, 12.5, 3.13, 0.78, 0.20, 0.049 and 0 μM). The 2× working concentration diluted solution of the compound was added into a 24-well plate (250 μl of the culture solution containing 2% DMSO was added into the negative control well) at 250 μL/well. The culture plate was then placed in a cell incubator, and incubated for 6 h. After the cell incubation, the supernatant was collected by centrifugation at 300 g×5 min, and the mIFN-β content (pg/ml) in the cell culture supernatant was detected according to the operating instructions of the VeriKinem Mouse IFN Beta ELISA Kit from PBL (obtained by conversion of the OD450 nm absorbance-mIFN-β standard concentration standard curve and the OD450 nm absorbance value read by the microplate reader). EC50 was calculated through log(agonist) vs. response—Variable slope fitting by the Graphpad Prism software, and the experimental results are shown in Table 3.
In the table, EC50 refers to the concentration of a compound when the expression of mIFN-β generated by stimulation of the compound reaches half of Emax; and Emax refers to the highest expression of mIFN-β generated by stimulation of the compound.

The target in experiment [5] is T1, hSTING protein (Homo sapiens, UniProt Q86WV6).
T1 construct: purchased Cisbio
T1 sequence (Q86WV6 whole entry H232R): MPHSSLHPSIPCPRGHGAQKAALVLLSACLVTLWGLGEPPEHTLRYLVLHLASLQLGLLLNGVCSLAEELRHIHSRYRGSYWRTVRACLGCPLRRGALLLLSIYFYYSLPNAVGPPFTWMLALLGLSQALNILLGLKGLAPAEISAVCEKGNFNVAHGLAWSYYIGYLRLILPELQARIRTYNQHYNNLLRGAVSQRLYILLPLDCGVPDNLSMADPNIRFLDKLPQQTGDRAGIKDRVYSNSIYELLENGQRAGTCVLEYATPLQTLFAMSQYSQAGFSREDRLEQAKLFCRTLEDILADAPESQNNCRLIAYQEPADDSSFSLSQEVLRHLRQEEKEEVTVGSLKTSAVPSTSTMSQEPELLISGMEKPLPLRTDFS
Briefly: Human STING binding kit (HTRF) competitive binding assay. An excerpt: In this experiment, the capability of the compound and the specific ligand (d2-STING-ligand) in a Human STING binding kit from Cisbio for competitively binding to the 6×His-hSTING protein was detected using the Human STING binding kit (HTRF method), so as to evaluate the binding affinity between the compound to be tested and the hSTING protein.
The compound was gradiently diluted with a dilution buffer in the Human STING binding kit (the diluent buffer reagent) to obtain a 4× working concentration diluted solution. […] The 6×His-hSTING protein (50× in the mother liquor) was diluted to 1× with the detection buffer in the Human STING binding kit (the detection buffer reagent). 5 μl of the diluted solution was added into the corresponding wells of a 384-well plate, and the well with no protein and no compound was set as a negative control well (min), while the well with the protein and no compound was set as a positive control well (max). The d2-STING-ligand and Tb^3+-anti-6×His-antibody (both 50× in the mother liquor) were diluted to 1× with the detection buffer in the Human STING binding kit (the detection buffer reagent), and mixed uniformly at a ratio of 1:1. 10 μl of the mixed solution was added to the corresponding wells of a 384-well plate. The plate was sealed and incubated at room temperature (25° C.) for 3 h. A BMG microplate reader was used to read HTRF, and the ratio was calculated according to the following formula: Ratio=signal665nm/signal620nm×10000. […] IC50 was calculated through log(inhibitor) vs. response—Variable slope fitting by the Graphpad Prism software.

In turn, `CCOC(=O)CCC(=O)c1cc2cc(OC)c(OCCCOc3cc4sc(C(=O)N(C)CCC(=O)OCC)cc4cc3OC)cc2s1` [Compound 1, ethyl 4-(6-(3-((2-((3-ethoxy-3-oxopropyl)(methyl)carbamoyl)-5-methoxybenzo[b]thiophen-6-yl)oxy)propoxy)-5-methoxybenzo[b]thiophen-2-yl)-4-oxobutyrate] showed a concentration for a half-maximal effect (EC50) in experiment [1] (Homo sapiens) of 0.00057 µM. Moreover, in experiment [1], the “Emax (OD620nm)” value is reported as 1.54 OD620nm and the “agonistic effect on the STING-mediated Interferon (IFN) signal pathway” value (shortened to “agonistic effect … (IFN) signal pathway”) was “strong agonistic effects”. For the same compound, the “agonistic effect on the phosphorylation levels of STING, TBK1 and IRF3” value in experiment [2] was “strong agonistic effects”.

Compound `CCOC(=O)CCC(=O)c1cc2cc(OCCCOc3cc4sc(C(=O)N(C)CCC(=O)OCC)cc4cc3OC)c(OC)cc2s1` [Compound 5, ethyl 4-(5-(3-((2-((3-ethoxy-3-oxopropyl)(methyl)carbamoyl)-5-methoxybenzo[b]thiophen-6-yl)oxy)propoxy)-6-methoxybenzo[b]thiophen-2-yl)-4-oxobutyrate] registered an EC50 in experiment [1] (Homo sapiens) of 0.0014 µM. Moreover, in experiment [1], the “Emax (OD620nm)” value is reported as 1.94 OD620nm and the “agonistic effect … (IFN) signal pathway” value is “strong agonistic effects”.

In turn, `CCOC(=O)CCC(=O)c1cc2cc(OCCCOc3cc4cc(C(=O)N(C)CCCOC)sc4cc3OC)c(OC)cc2s1` [Compound 23, ethyl 4-(6-methoxy-5-(3-((6-methoxy-2-((3-methoxypropyl)(methyl)carbamoyl)benzo[b]thiophen-5-yl)oxy)propoxy)benzo[b]thiophen-2-yl)-4-oxobutyrate] showed an EC50 in experiment [1] (Homo sapiens) of 0.974 µM. Besides, in experiment [1], the “Emax (OD620nm)” value was determined as 1.74 OD620nm and the “agonistic effect … (IFN) signal pathway” value is “strong agonistic effects”.

Regarding `Nc1ncnc2c1ncn2[C@@H]1O[C@@H]2COP(=O)([S-])O[C@@H]3[C@H](O)[C@@H](COP([O-])(=S)O[C@H]2[C@H]1O)O[C@H]3n1cnc2c(N)ncnc21.[Na+].[Na+]` (stereo partly drawn) [Control Compound 1, ADU-S100, reference compound], the figures for the EC50 in experiment [1], in experiment [3] and in experiment [4] were 3.88 µM, 14 µM and 2.74 µM, respectively. In experiment [1], the “Emax (OD620nm)” value was determined as 2.03 OD620nm. Further, the “Emax” value came out at 1476.6 pg/mL in experiment [3] and 1248.94 pg/mL in experiment [4].

In the case of `COc1cc2cc(C(=O)CCC(=O)O)sc2cc1OC` [Control Compound 2, reference compound], the results for the EC50 in experiment [1] (Homo sapiens), in experiment [3] and in experiment [4] were 4.95 µM, 16.8 µM and 24.6 µM, respectively. The “Emax (OD620nm)” value in experiment [1] amounted to 1.49 OD620nm. The “Emax” value in experiment [3] turned out to be 1373.9 pg/mL; in experiment [4] it was 1106.15 pg/mL. The inhibition constant Ki in experiment [5] (calculated as Ki=1/2*IC50 per kit instructions) was 1.89 µM. The compound also gave an IC50 in experiment [5] (competition with d2-STING-ligand for 6×His-hSTING, HTRF, 3 h at 25° C.) of 3.78 µM.
